A value given as a limit tells only on which side of the number the result lay.

In series [1] the test system is α2 adrenergic receptors of the central nervous system. As to the kind of experiment: inhibition of the antihypertensive action of clonidine in spontaneously hypertensive rats (SHR). It is filed as in vivo, rat. Particulars: 1 mg/kg p.o., clonidine 50 μg/kg s.c. The method, then:
In the first study, carried out upon unanaesthetized spontaneously hypertensive rats (SHR rats), the ability of the compounds of the present invention to inhibit the antihypertensive action of clonidine was determined.
The antihypertensive activity of clonidine results from an interaction with α2 adrenergic receptors of the central nervous system, i.e., central antihypertensive actions.
In this test, two groups of SHR rats are utilized as follows. In the first group, prior to subcutaneous administration of clonidine (50 μg/kg), the SHR rats are treated with the compound to be tested (1 mg/kg p.o.) dissolved in a saline vehicle. The second group (control group) of SHR rats are treated with the saline vehicle only, prior to subcutaneous administration of clonidine.
The arterial pressure is measured in the region of the median coccygeal artery according to the method of J. Roba, A. F. DeSchaepdrijver, Exp. Anim., 4, 147-162 (1971).
The results of this assay summarized in Table II, column 5, are expressed as a percentage of inhibition of the effect of clonidine.

The nature of series [2]: acute toxicity after oral administration to mice (LD50). To be noted: mouse, in vivo, 15 days mortality. The gist of the method: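 Compounds suspended in 1% tragacanth gum mucilage given by intragastric probe to groups of three fasted male mice at 3,000 to 3 mg/kg or less. Mortality recorded over 15 days; LD50 (mg/kg) calculated by the Litchfield–Wilcoxon method. Behaviour observed up to 5–6 h and at 24 h.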

The next series addresses T1, α2 -adrenergic receptors (Cavia porcellus, UniProt Q60474).
T1 construct: from tissue; host or cells: isolated guinea pig ileum
T1 sequence (Q60474 1-464): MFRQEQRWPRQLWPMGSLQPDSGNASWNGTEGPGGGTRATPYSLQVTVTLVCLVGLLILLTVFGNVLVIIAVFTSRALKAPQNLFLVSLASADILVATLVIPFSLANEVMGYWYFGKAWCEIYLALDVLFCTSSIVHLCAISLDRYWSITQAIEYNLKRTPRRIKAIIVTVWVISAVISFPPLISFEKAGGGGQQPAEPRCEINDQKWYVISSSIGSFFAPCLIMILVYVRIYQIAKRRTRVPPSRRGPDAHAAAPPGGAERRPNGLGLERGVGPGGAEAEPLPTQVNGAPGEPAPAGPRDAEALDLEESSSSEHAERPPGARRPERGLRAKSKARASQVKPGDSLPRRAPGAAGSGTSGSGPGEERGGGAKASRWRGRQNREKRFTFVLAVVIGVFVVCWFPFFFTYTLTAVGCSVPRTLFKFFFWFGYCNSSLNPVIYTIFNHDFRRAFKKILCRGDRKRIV
As to the kind of experiment: α2 antagonist and α2 agonist activity in isolated guinea pig ileum (clonidine). Particulars: for EC50: 50% of maximum inhibition obtained with clonidine, read-out: α2 Agonist Activity (-log ED50) (converted); for Kb: versus clonidine, read-out: α2 Antagonist Activity (pA2) (converted). The method, then:
The α2 antagonist and α2 agonist activity of the compounds according to the invention was determined upon isolated organs according to a model described by G. M. Drews, Br. J. Pharmaco., 64, 293-300 (1978).
This model is based upon the principle that the stimulation of the cholinergic nervous transmissions of the guinea pig ileum causes the liberation of acetyl choline, which in turn causes contractions of the ileum.
The stimulation of the α2 -adrenergic receptors inhibits the activity of the cholinergic nerve and consequently reduces all response resulting from a timulation of the latter. Thus the contractions of the ileum induced by electric stimulation of the tissue are inhibited by clonidine, an α2 agonist, in proportion to the dose. This inhibition is specifically displaced by the α2 antagonists and not by the α1 antagonists.
The method utilized can be summarized as follows: three dose-response curves to clonidine are established at an interval of 60 minutes. Two concentrations of the product to be tested are added successively 10 minutes before the realization of the second and third clonidine curves. Next, after washing, a dose-response curve is established with the product to be tested.
The dose-response curves are calculated as a percentage of the maximum inhibition obtained for the first curve. In this system the products having an α2 antagonist activity displace the dose-response curve to clonidine. The α2 antagonist activity, expressed in pA2 value, shown in column 4, is calculated according to J. M. Van Rossum, Arch. Int. Pharmacodyn., 143, 299-300 (1963).
A reduction of the contractions induced by the tested product alone indicates an α2 agonist effect. This activity is expressed in--log ED50 (the--logarithm of the concentration of the product giving 50% of the maximum inhibition obtained with clonidine).
The higher the pA2 value, the higher the α2 antagonist activity; the higher the--log ED50 value (i.e., the pA2 agonist activity), the higher the α2 agonist activity.

The term LD50 denotes the dose at which mortality reaches 50%. As to `c1ccc(C(Cc2c[nH]cn2)c2ccccc2)cc1` [Compound 1, 4(5)-(2,2-diphenylethyl)-imidazole], the “α2 Antagonist (% Inhibition of the Antihypertension of Clonidine)” value in series [1] was 50%. Also, the 50% lethal dose (LD50) at 360 h in series [2] is 155 mg/kg. Besides, on α2 -adrenergic receptors, the EC50 was 3160 nM and the Kb is 5.01 nM.
For `CC(c1c[nH]cn1)C(c1ccccc1)c1ccccc1` (stereo not shown) [Compound 4], in that order: 68%, > 300 mg/kg, > 3160 nM and 316 nM.
For `Cc1cccc(C(Cc2c[nH]cn2)c2ccccc2)c1` (stereo not shown) [Compound 9, 4(5)-{[2-(3-methylphenyl)-2-phenyl]ethyl}imidazole], in that order: 92%, 155 mg/kg, 2510 nM and 15.8 nM.
As to `Cc1ccccc1C(Cc1c[nH]cn1)c1ccccc1` (stereo not shown) [Compound 12], the “α2 Antagonist (% Inhibition of the Antihypertension of Clonidine)” value in series [1] worked out at 78%. The molecule also gave an LD50 at 360 h in series [2] of 155 mg/kg. On α2 -adrenergic receptors, the EC50 is 3980 nM and the Kb is 12.6 nM.
Regarding `Clc1ccccc1C(Cc1c[nH]cn1)c1ccccc1` (stereo not shown) [Compound 13, 4(5)-{[2-(2-chlorophenyl)-2-phenyl]ethyl}imidazole], in series [1], the “α2 Antagonist (% Inhibition of the Antihypertension of Clonidine)” value is listed as 46%. The same molecule had an LD50 at 360 h in series [2] of 172 mg/kg. Further, on α2 -adrenergic receptors, the EC50 is 3160 nM and the Kb was 10 nM.
In the case of `Fc1ccc(C(Cc2c[nH]cn2)c2ccccc2)cc1` (stereo not shown) [Compound 14, 4(5)-{[2-(4-fluorophenyl)-2-phenyl]ethyl}imidazole], the “α2 Antagonist (% Inhibition of the Antihypertension of Clonidine)” value in series [1] was determined as 82%. The molecule also showed an LD50 at 360 h in series [2] of 155 mg/kg. On α2 -adrenergic receptors, the EC50 was 6310 nM and the Kb is 15.8 nM.
On the same counts, the results for `Fc1ccc(C(Cc2c[nH]cn2)c2ccccc2F)cc1` (stereo not shown) [Compound 15, 4(5)-{[2-(2-fluorophenyl)-2-(4'-fluorophenyl)]ethyl}imidazole] are 75%, 155 mg/kg, 5010 nM and 15.8 nM.
On the same counts, the results for `Cc1ccc(C)c(C(Cc2c[nH]cn2)c2ccccc2)c1` (stereo not shown) [Compound 16] are 69%, > 300 mg/kg, 2000 nM and 100 nM.
On the same counts, the results for `COc1ccc(C(Cc2c[nH]cn2)c2ccccc2)cc1` (stereo not shown) [Compound 17, 4(5)-{[2-(4-methoxyphenyl)-2-phenyl]ethyl}imidazole] are 26%, 350 mg/kg, 10000 nM and 12.6 nM.
As for `Cc1ccc(C(Cc2c[nH]cn2)c2ccccc2)cc1` (stereo not shown) [Compound 21], in series [1], the “α2 Antagonist (% Inhibition of the Antihypertension of Clonidine)” value is on record as 48%. The LD50 at 360 h in series [2] was 350 mg/kg. Further, on α2 -adrenergic receptors, the EC50 is 5010 nM and the Kb was 25.1 nM.

Source of the values: patent publication US4738979A, “α2 -blocking derivatives of imidazole” (G. D. Searle & Co., priority 1985, dated 1988).
